Data on 1 compound can be found in patent US20240108634A1, “COMPOSITIONS AND METHODS FOR INHIBITING YAP” (The United States Government as represented by the …, priority 2021, published 2024).

This assay has as its target T1, YAP association with TEAD1-4, SMAD7, p73, FOS, TBXS (Homo sapiens, UniProt P46937).
T1 construct: expressed in transfected cells
The assay can be described thus: HA-YAP1 immunoprecipitation from LN229 cells, immunoblot for TEAD1-4 and other transcription factors. Type of assay: cell-based. The settings on record: LN229 cells expressing HA-YAP, 18 h. The method, then: Levels of total YAP were determined via ELISA. […] Immunoprecipitates were immunoblotted for the indicated proteins. […] Cells were treated with the indicated concentrations of inhibitor for 18 h and mRNA extracted for real time RT-PCR analyses. Measurements were performed in quadruplicate and means and+S.D. are shown. […] Cells were treated with (+) or without (−) NSC682769 (100 nM, 18 h) and harvested and separated into cytoplasmic and nuclear cellular fractions. Cytoplasmic versus nuclear material was subsequently immunoblotted for the indicated proteins. […] Values in top right corner of panels correspond to the percentage of nuclear localized YAP. […]
Protein and mRNA analyses, immunoprecipitation, in vitro bead-coupled inhibitor binding assays and HPLC analyses. […] Antigen-antibody complexes were detected using appropriate horseradish peroxidase-conjugated secondary antibodies (GE Healthcare) and enhanced chemiluminescence (Amersham ECL Prime). […] For quantitative RT-PCR, extraction of RNA was performed using Trizol® (Life Technologies). Total RNA was then quantified and integrity assessed using an Agilent 2100 Bioanalyzer (Agilent Technology). […] SYBR® Green quantitative PCR (Millipore Sigma) was performed in triplicate in 96-well optical plates on an ABI Prism 7000 Sequence Detection System (Life Technologies) according to the manufacturer's instructions. […]

T1 sequence (P46937 whole entry): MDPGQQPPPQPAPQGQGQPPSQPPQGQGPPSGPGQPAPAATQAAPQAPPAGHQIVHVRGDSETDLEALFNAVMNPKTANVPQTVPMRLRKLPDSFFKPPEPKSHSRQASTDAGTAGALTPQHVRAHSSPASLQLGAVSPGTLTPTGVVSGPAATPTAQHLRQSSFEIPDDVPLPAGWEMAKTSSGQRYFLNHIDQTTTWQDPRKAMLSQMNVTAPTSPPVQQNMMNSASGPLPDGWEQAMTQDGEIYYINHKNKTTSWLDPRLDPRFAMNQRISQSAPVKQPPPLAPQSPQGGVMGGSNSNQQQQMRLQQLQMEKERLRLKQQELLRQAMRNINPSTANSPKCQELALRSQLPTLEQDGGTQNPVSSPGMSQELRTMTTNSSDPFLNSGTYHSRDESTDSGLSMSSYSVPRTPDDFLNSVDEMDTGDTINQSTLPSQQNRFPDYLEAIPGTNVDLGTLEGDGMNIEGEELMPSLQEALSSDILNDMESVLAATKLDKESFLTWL

Consider `COc1ccc(-c2cc(-c3ccccc3)nc3c2CC(=O)Nc2ccccc2-3)cc1OC` [NSC682769], for which the “Binding of TEAD1-4 to YAP” value is “inhibited the binding of the four TEAD members to YAP” and the “SMAD7, p73, FOS or TBXS association with YAP” value is reported as “no appreciable effects”.
